Where two headings read alike, the source gives them in different places.
Key:
[1] = target: T1, IRAK4 (Homo sapiens (Human), UniProt Q9NWZ3); test: Deep tandem mass tag (TMT) proteomics in OCI-LY10; format: cell-based; settings: OCI-LY10, 8 hours
Method: Total protein was isolated from OCI-LY10 cells treated with 10 nM I-30, 30 nM I-30 and 30 nM 2-{2-[(cyclopropylmethyl)amino]pyridin-4-yl}-N-[3-(difluoromethyl)-1-[4-({[2-(2-{3-[3-methyl-1-(1-methyl-2,6-dioxopiperidin-3-yl)-2-oxo-2,3-dihydro-1H-1,3-benzodiazol-4-yl]propoxy}ethoxy)ethyl]amino}methyl)phenyl]-1H-pyrazol-4-yl]-1,3-oxazole-4-carboxamide for 8 hours. Vehicle (DMSO)-treated cells were used as controls. Protein lysates, 2 biological replicates per condition, were prepared at 4 C in 8M urea, 75 mM NaCl, 1 mM EDTA in 50 mM Tris HCl (pH 8), 10 mM NaF, phosphatase inhibitor cocktail 2 (1:100; Sigma, P5726) and cocktail 3 (1:100; Sigma, P0044), 2 μg/mL aprotinin (Sigma, A6103), 10 μg/mL Leupeptin (Roche, 11017101001), and 1 mM PMSF (Sigma, 78830). Lysates were spun at 20,000 rcf for 10 min and supernatant (containing extracted proteins) was transferred to a clean microcentrifuge tube. Protein concentrations were determined using the Pierce BCA assay. […] Online fractionation was performed using a nanoflow Proxeon EASY-nLC 1200 UHPLC system (Thermo Fisher Scientific) and separated peptides were analyzed on a benchtop Orbitrap Q Exactive plus mass spectrometer (Thermo Fisher Scientific). All data were analyzed using Spectrum Mill software package (Agilent Technologies). […] In total, 10,992 proteins were quantified. […]

[2] = target: T1, IRAK4; test: IRAK4 degradation in OCI-LY10 (DC50); format: cell-based
[3] = target: AIOLOS (Homo sapiens (Human), UniProt Q96SW2+Q9UKT9); test: AIOLOS degradation in OCI-LY10 (DC50); format: cell-based
[4] = test system: Wistar Strain rats; test: MSU induced gouty arthritis (knee inflammation) in rats; format: in vivo; settings: prophylactic treatment, MSU-induced knee inflammation rat model
Method: The anti-inflammatory efficacy and pain reduction for prophylactic treatment in an MSU-induced knee inflammation rat model of human gout was evaluated. See Kou, Y-Y et al., Evid-Based Compl. Alt. (doi: http://dx.doi.org/10.1155/2015/527019).
Preparation of MSU crystals: 4 g uric acid is dissolved in 800 ml 0.03N NaOH and heated to 60° C. NaOH is added as required to maintain pH 8.9. The solution is stored overnight at 4-8° C. Crystals are filtered, washed and dried. Crystals are suspended in sterile saline just prior to use.
Efficacy Study: Receive and quarantine 70 Wistar Strain rats (male, 250-300 g). Following quarantine, rats are accepted for the Study if no signs of clinical distress are noted during the 3-day quarantine period. […] The rat weights are recorded. […] Baseline readings are taken on DAY −3. Baseline knee diameters are measured by digital caliper. Baseline responses to mechanical allodynia, as measured by von Frey fibers, are recorded. […]
DAY 1: Rats are weighed and dosed as in Table 14. One hour after dosing, mechanical allodynia and knee diameters are measured and recorded.
DAY 2: Rats are weighed and dosed as in Table 14 One hour after dosing, mechanical allodynia and knee diameters are measured and recorded. […]
Results are tabulated, graphed and statistically analyzed for anti-inflammatory efficacy and pain reduction.

T1 sequence (Q9NWZ3 whole entry): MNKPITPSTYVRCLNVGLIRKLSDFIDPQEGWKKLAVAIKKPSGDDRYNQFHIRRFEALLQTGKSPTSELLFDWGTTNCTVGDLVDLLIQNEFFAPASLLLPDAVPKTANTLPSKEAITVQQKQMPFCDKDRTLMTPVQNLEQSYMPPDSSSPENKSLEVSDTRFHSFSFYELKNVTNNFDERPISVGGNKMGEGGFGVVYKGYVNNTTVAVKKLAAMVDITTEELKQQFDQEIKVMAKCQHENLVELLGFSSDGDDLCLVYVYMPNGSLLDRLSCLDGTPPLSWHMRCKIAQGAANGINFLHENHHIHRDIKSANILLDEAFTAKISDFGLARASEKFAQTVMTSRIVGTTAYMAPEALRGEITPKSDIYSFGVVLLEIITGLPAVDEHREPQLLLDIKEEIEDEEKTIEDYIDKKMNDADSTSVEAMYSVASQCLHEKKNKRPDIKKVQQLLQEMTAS
AIOLOS, sequence (Q9UKT9 whole entry): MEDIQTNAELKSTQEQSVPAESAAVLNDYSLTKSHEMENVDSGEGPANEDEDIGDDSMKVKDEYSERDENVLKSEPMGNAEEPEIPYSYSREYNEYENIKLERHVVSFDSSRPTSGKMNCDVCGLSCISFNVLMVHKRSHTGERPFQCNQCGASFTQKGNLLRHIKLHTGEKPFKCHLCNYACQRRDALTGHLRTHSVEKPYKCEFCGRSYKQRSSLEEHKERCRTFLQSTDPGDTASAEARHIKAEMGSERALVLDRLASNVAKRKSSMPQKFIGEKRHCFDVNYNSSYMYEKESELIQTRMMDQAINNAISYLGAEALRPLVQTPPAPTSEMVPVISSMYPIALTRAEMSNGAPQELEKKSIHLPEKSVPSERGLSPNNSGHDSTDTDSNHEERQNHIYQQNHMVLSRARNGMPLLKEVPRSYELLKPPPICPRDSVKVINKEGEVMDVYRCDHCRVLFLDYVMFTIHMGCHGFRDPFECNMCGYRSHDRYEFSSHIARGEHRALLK
AIOLOS, sequence (Q96SW2 whole entry): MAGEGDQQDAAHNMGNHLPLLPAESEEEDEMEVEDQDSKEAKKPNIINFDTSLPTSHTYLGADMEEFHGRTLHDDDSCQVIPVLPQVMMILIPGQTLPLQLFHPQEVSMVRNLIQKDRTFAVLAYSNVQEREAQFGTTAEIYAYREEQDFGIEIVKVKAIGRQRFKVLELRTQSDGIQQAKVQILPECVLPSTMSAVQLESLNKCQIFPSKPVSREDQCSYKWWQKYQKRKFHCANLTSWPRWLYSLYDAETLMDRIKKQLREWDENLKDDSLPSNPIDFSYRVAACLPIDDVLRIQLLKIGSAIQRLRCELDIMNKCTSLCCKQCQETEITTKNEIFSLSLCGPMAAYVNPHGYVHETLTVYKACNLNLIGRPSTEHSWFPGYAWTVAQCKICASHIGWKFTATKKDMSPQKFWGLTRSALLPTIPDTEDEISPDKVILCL
AIOLOS, sequence (Q16531 whole entry partner): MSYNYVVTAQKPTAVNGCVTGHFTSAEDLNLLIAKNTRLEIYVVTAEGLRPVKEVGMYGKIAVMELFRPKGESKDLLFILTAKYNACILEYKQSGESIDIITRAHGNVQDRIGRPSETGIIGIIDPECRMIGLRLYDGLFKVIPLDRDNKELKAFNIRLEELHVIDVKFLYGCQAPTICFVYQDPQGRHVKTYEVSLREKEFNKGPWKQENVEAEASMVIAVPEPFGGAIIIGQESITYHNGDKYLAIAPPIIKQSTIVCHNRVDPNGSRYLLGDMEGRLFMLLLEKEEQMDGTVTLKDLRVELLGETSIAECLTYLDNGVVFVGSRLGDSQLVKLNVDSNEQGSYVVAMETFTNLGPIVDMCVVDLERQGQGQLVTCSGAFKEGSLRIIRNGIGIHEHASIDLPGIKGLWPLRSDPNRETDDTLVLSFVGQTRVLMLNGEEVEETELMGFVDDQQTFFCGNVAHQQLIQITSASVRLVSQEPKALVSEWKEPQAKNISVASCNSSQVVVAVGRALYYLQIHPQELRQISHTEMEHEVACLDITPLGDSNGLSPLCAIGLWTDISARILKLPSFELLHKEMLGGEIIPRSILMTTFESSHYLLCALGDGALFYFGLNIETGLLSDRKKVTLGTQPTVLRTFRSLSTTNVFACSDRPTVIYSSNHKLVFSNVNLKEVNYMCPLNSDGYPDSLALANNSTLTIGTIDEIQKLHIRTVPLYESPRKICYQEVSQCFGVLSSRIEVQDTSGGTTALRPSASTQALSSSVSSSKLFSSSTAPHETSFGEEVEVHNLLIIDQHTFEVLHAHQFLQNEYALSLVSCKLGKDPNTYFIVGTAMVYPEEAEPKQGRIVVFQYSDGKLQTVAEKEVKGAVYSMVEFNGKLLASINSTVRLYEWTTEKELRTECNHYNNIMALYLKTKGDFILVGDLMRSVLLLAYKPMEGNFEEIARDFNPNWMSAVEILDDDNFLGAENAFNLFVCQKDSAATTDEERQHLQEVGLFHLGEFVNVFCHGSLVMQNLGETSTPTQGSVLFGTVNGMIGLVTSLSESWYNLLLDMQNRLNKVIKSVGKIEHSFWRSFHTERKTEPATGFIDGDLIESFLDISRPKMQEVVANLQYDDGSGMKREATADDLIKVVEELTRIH

SMILES: CN(CCCOCCCc1cccc2c1n(C)c(=O)n2C1CCC(=O)NC1=O)C[C@H]1CC[C@H](n2cc(NC(=O)c3coc(-c4ccnc(NCC5CC5)c4)n3)c(C(F)F)n2)CC1 (mixture of isomers) [I-30, 2-[2-(Cyclopropylmethylamino)-4-pyridyl]-N-[3-(difluoromethyl)-1-[4-[[3-[3-[1-(2,6-dioxo-3-piperidyl)-3-methyl-2-oxo-benzimidazol-4-yl]propoxy]propyl-methyl-amino]methyl]cyclohexyl]pyrazol-4-yl] oxazole-4-carboxamide]
- selectivity for IRAK4 vs. other proteins in OCI-LY10 (proteomics) [1]: highly selective for IRAK4 vs. >10,000 other proteins

SMILES: CN(C[C@H]1CC[C@H](n2cc(NC(=O)c3coc(-c4ccnc(NCC5CC5)c4)n3)c(C(F)F)n2)CC1)C1CCN(Cc2cccc3c2n(C)c(=O)n3C2CCC(=O)NC2=O)CC1 (stereo partly drawn) [I-75, 2-(2-((cyclopropylmethyl)amino)pyridin-4-yl)-N-(3-(difluoromethyl)-1-((1r,4r)-4-(((1-((1-(2,6-dioxopiperidin-3-yl)-3-methyl-2-oxo-2,3-dihydro-1H-benzo[d]imidazol-4-yl)methyl)piperidin-4-yl)(methyl)amino)methyl)cyclohexyl)-1H-pyrazol-4-yl)oxazole-4-carboxamide]
- DC50 ([2]; read-out: IRAK4 Degradation in OCI-LY10, DC50): 8 nM
- DC50 ([2]; read-out: IRAK4 OCI-LY10 DC50): 8 nM
- DC50 [3]: > 100 nM
- knee joint swelling ([4]; FIG. 17 A): decreasing knee joint swelling
- pain sensitivity ([4]; FIG. 17 B): analgesic effect

From patent US11352350B2, “IRAK degraders and uses thereof” (Kymera Therapeutics, Inc., priority 2018, dated 2022)
